How the values were obtained:
[1] = tested on: Aspergillus niger β-mannanase; experiment: Enzyme degradation assay of guar solutions (viscosity reduction, steady shear rheology); format: biochemical; conditions: for inhibition of β-mannanase by TRIS variants (zero shear viscosity): 25 mM
Description: Enzyme Degradation Assay: Enzyme degradation was conducted with 7 mg/ml purified guar solutions containing 0.2 mg/ml sodium azide and 20 mM of the appropriate buffer. Guar solutions (19 ml) and enzyme stock solution were separately pre-incubated at 25° C. for 15 minutes, followed by the addition of 78.9 μl of enzyme stock solution to 19 ml of guar solution. The final enzyme concentration was 8.3×10^−4 U/ml. The mixture was shaken at an agitation speed of 2 at 25° C. for 1 hour in a New Brunswick gyrotory water bath shaker (Model G76). The enzyme was denatured after 1 hour by placing the enzyme/guar solution in a 90° C. water bath for 10 minutes. Enzyme hydrolysis was conducted at different pH's using various buffers: sodium acetate was used for pH 4 and 5, MES was used for pH 6, sodium phosphate was used for pH 7 and pH 8 and glycine was used for pH 9. If inhibitor, inhibitor variant or NaCl was used, the appropriate amount was added to the guar solution and the pH was readjusted to the appropriate value. […] After incubating each of these solutions at 25° C. for 30 minutes, 78.9 μl of this solution was added to 19 ml of guar solution and the enzymatic degradation of guar was analyzed following known techniques.
Rheology: Steady shear experiments were conducted using a Rheometrics Dynamic Stress Rheometer (DSR II) and a couette fixture with a cup diameter of 31.9 mm, a bob diameter of 29.5 mm and a bob length of 44.25 mm. All experiments were performed at 25° C. and all reported data were reproducible within 10%. Steady shear experiments were performed to determine viscosity, η, as a function of shear rate. […] To analyze a portion of the data, a normalized relative activity was defined using the viscosity data. At a particular pH, the viscosity difference (Δη) between the initial zero shear viscosity and the zero shear viscosity after 1 hour of degradation was used as the reference Δη. […] In summary, [formula]

[2] = from 25 degrees C. to 60 degrees C.
From the text: The relative amounts of the two forms are dependent on the pH of the solution and can be predicted by the Henderson-Hasselbach equation.

For `O=C(O)CNC(CO)(CO)CO` [N-tris (hydroxymethyl) methylglycine, reference compound], the “inhibition of β-mannanase by TRIS variants (zero shear viscosity)” value ([1]; pH 9, 1 hour) was “no inhibition”.
With `NC(CO)(CO)CO` [TRIS, 2-amino-2-hydroxymethyl-1,3-propanediol] the “pH drop on temperature increase” value [2] was 0.98, the “inhibition of β-mannanase degradation of guar” value ([1]; 1 mM TRIS, pH 9, 1 hour) was “only minimal inhibition” and the “viscosity reduction of guar by β-mannanase” value ([1]; 1 mM TRIS, pH 9, 5 hours) was “impeded viscosity reduction considerably”. The “inhibition of β-mannanase degradation of guar” value ([1]; 5 mM TRIS, pH 9, 1 hour) was “inhibited the degradation considerably”, the “viscosity reduction of guar by β-mannanase” value ([1]; 10 mM TRIS, pH 9, 5 hours) was “minimal viscosity reduction” and the “viscosity reduction of guar by β-mannanase” value ([1]; 10 mM and higher TRIS, pH 9, 1 hour) was “no viscosity reduction”. For the same molecule, the “inhibition of enzyme degradation” value ([1]; 25mM TRIS, pH 9, enzyme 8.3×10^−4 U/ml) was “inhibits enzyme degradation for an extended period of time”, the “viscosity reduction of guar by β-mannanase” value ([1]; 25 mM and higher TRIS, pH 9, 5 hours) was “no viscosity reduction” and the “inhibition after mixing TRIS with the enzyme solution before addition to guar” value ([1]; TRIS to enzyme molar ratio 1:1 and 5:1, 30 minutes pre-incubation) was “neither of these solutions showed any inhibition”. For the same molecule, the type of inhibition ([1]; degradation triggered after 5 hours by pH shift) was “reversible inhibitor”, the “effect on enzymatic hydrolysis by β-mannanase” value ([1]; pH 4, 1 hour, 0-25 mM TRIS) was “did not impede enzymatic hydrolysis” and the “inhibition of β-mannanase at pH 7 compared with pH 9” value ([1]; pH 7, low concentrations of TRIS, 1 hour) was “better inhibitor of the enzyme than at pH 9”. The “viscosity reduction of guar by β-mannanase with TRIS as buffer” value ([1]; pH 8, 1 hour, 7 mg/ml guar, 8.3×10^−4 U/ml enzyme) was “negligible reduction in viscosity”.
For `O=[N+]([O-])C(CO)(CO)CO` [Tris (hydroxymethyl) nitromethane, reference compound], the “inhibition of β-mannanase by TRIS variants (zero shear viscosity)” value ([1]; pH 9, 1 hour) was “no inhibition”.
With “Tris(hydroxymethyl)aminomethane [base form of TRIS]” the “inhibition of β-mannanase, base form compared with hydrochloride form” value ([1]; base form of TRIS (without any salts)) was “exactly the same as that of TRIS in its hydrochloride form”.
In the case of `[Cl-].[Na+]` [NaCl], the “effect of added salt on viscosity reduction by the enzyme” value ([1]; pH 4 and pH 9, same quantities as with TRIS hydrochloride) is reported as “did not alter the viscosity reduction”.

— patent US20020193343A1, “Controlled enzymatic degradation of guar galactomannan solutions using enzymatic inhibition” (priority 2000, published 2002)
